Experiments:
Conditions in all cases: exposure time: 72 h
[1] = system: E13 (patient-derived glioblastoma stem cells of classical subtype); assay: surviving fraction (nuclei count normalised to DMSO); higher = more cells surviving (less toxic)
[2] = system: E21 (patient-derived glioblastoma stem cells of mesenchymal subtype); assay: as above
[3] = system: E28 (patient-derived glioblastoma stem cells of classical subtype); assay: as above
[4] = system: E31 (patient-derived glioblastoma stem cells of proneural subtype); assay: as above
[5] = system: E34 (patient-derived glioblastoma stem cells of proneural subtype); assay: as above
[6] = system: E57 (patient-derived glioblastoma stem cells of mesenchymal subtype); assay: as above
[7] = system: FT3469 (normal neural stem cell line); assay: as above
[8] = system: E13; assay: phenotypic distance (Euclidean, principal components) from DMSO controls (arbitrary units); higher = stronger morphological change
[9] = system: E21; assay: as above
[10] = system: E28; assay: as above
[11] = system: E31; assay: as above
[12] = system: E34; assay: as above
[13] = system: E57; assay: as above
[14] = system: FT3469; assay: as above
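Throughout, for phenotypic distance (Euclidean, principal components) from DMSO controls: cell Painting imaging in 384-well plates, CellProfiler features reduced to at least 20 principal components, Euclidean distance versus same-plate DMSO vehicle wells (0.1% v/v), median over six images per well.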
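Throughout, for surviving fraction (nuclei count normalised to DMSO): nuclei counted by high-content imaging of Hoechst-stained cells in laminin-coated 384-well plates, relative to 0.1% DMSO vehicle wells, with staurosporine as cell-death control.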

Cc1cc(CN2CCN(c3c(Br)cnc4nc(-c5ccc(N6CCN(C)CC6)cc5)[nH]c34)CC2)no1
Conditions	phenotypic distance	surviving fraction
[1], 4.1 nM	–	0.995
[1], 12.3 nM	–	0.966
[1], 37 nM	–	0.963
[1], 111.1 nM	–	0.91
[1], 333.3 nM	–	0.676
[1], 1000 nM	–	0.528
[1], 3000 nM	–	0.0986
[2], 4.1 nM	–	0.936
[2], 12.3 nM	–	0.864
[2], 37 nM	–	0.9
[2], 111.1 nM	–	0.917
[2], 333.3 nM	–	0.6
[2], 1000 nM	–	0.387
[2], 3000 nM	–	0.0348
[3], 4.1 nM	–	1.15
[3], 12.3 nM	–	0.888
[3], 37 nM	–	1.09
[3], 111.1 nM	–	0.916
[3], 333.3 nM	–	0.806
[3], 1000 nM	–	0.392
[3], 3000 nM	–	0.163
[4], 4.1 nM	–	1.02
[4], 12.3 nM	–	0.782
[4], 37 nM	–	0.994
[4], 111.1 nM	–	0.867
[4], 333.3 nM	–	0.511
[4], 1000 nM	–	0.334
[4], 3000 nM	–	0.00629
[5], 4.1 nM	–	0.839
[5], 12.3 nM	–	0.842
[5], 37 nM	–	1.09
[5], 111.1 nM	–	0.872
[5], 333.3 nM	–	0.827
[5], 1000 nM	–	0.618
[5], 3000 nM	–	0.26
[6], 4.1 nM	–	0.974
[6], 12.3 nM	–	0.888
[6], 37 nM	–	0.906
[6], 111.1 nM	–	0.871
[6], 333.3 nM	–	0.651
[6], 1000 nM	–	0.325
[6], 3000 nM	–	0.0382
[7], 4.1 nM	–	0.662
[7], 12.3 nM	–	0.758
[7], 37 nM	–	0.843
[7], 111.1 nM	–	0.737
[7], 333.3 nM	–	0.705
[7], 1000 nM	–	0.676
[7], 3000 nM	–	0.37
[8], 4.1 nM	0.33	–
[8], 12.3 nM	0.336	–
[8], 37 nM	0.51	–
[8], 111.1 nM	0.456	–
[8], 333.3 nM	1.86	–
[8], 1000 nM	4.59	–
[8], 3000 nM	13.4	–
[9], 4.1 nM	1.03	–
[9], 12.3 nM	0.842	–
[9], 37 nM	0.688	–
[9], 111.1 nM	0.989	–
[9], 333.3 nM	2.77	–
[9], 1000 nM	5.77	–
[9], 3000 nM	7.03	–
[10], 4.1 nM	1.13	–
[10], 12.3 nM	1.52	–
[10], 37 nM	1.01	–
[10], 111.1 nM	1.29	–
[10], 333.3 nM	1.23	–
[10], 1000 nM	2.97	–
[10], 3000 nM	5.6	–
[11], 4.1 nM	0.99	–
[11], 12.3 nM	1.9	–
[11], 37 nM	1.97	–
[11], 111.1 nM	0.784	–
[11], 333.3 nM	1.62	–
[11], 1000 nM	3.36	–
[11], 3000 nM	10.2	–
[12], 4.1 nM	1.02	–
[12], 12.3 nM	1.13	–
[12], 37 nM	0.858	–
[12], 111.1 nM	0.728	–
[12], 333.3 nM	2.67	–
[12], 1000 nM	2.84	–
[12], 3000 nM	8.59	–
[13], 4.1 nM	0.499	–
[13], 12.3 nM	0.684	–
[13], 37 nM	0.82	–
[13], 111.1 nM	1.16	–
[13], 333.3 nM	5.64	–
[13], 1000 nM	8.26	–
[13], 3000 nM	9.56	–
[14], 4.1 nM	1.38	–
[14], 12.3 nM	0.929	–
[14], 37 nM	1.76	–
[14], 111.1 nM	1.44	–
[14], 333.3 nM	1.88	–
[14], 1000 nM	2.37	–
[14], 3000 nM	9.55	–

O=C(O)c1ccc(-c2c[nH]c3ncc(-c4ccccc4)cc23)cc1C1CCCC1
Conditions	phenotypic distance	surviving fraction
[1], 4.11523 nM	–	0.996
[1], 12.34567901 nM	–	0.826
[1], 37.037 nM	–	0.899
[1], 111.1111111 nM	–	0.825
[1], 333.333 nM	–	0.72
[1], 1000 nM	–	0.588
[1], 3000 nM	–	0.413
[2], 4.11523 nM	–	0.933
[2], 12.34567901 nM	–	0.832
[2], 37.037 nM	–	0.918
[2], 111.1111111 nM	–	0.783
[2], 333.333 nM	–	0.803
[2], 1000 nM	–	0.681
[2], 3000 nM	–	0.52
[3], 4.11523 nM	–	0.956
[3], 12.34567901 nM	–	0.911
[3], 37.037 nM	–	0.873
[3], 111.1111111 nM	–	1.01
[3], 333.333 nM	–	0.807
[3], 1000 nM	–	0.755
[3], 3000 nM	–	0.51
[4], 4.11523 nM	–	1.04
[4], 12.34567901 nM	–	1.01
[4], 37.037 nM	–	0.885
[4], 111.1111111 nM	–	1.14
[4], 333.333 nM	–	0.798
[4], 1000 nM	–	1.04
[4], 3000 nM	–	0.688
[5], 4.11523 nM	–	0.913
[5], 12.34567901 nM	–	1.06
[5], 37.037 nM	–	0.86
[5], 111.1111111 nM	–	0.909
[5], 333.333 nM	–	0.805
[5], 1000 nM	–	0.714
[5], 3000 nM	–	0.527
[6], 4.11523 nM	–	0.932
[6], 12.34567901 nM	–	0.905
[6], 37.037 nM	–	0.923
[6], 111.1111111 nM	–	0.916
[6], 333.333 nM	–	0.835
[6], 1000 nM	–	0.6
[6], 3000 nM	–	0.35
[7], 4.11523 nM	–	0.822
[7], 12.34567901 nM	–	0.943
[7], 37.037 nM	–	0.972
[7], 111.1111111 nM	–	0.987
[7], 333.333 nM	–	0.813
[7], 1000 nM	–	0.996
[7], 3000 nM	–	0.766
[8], 4.11523 nM	3.86	–
[8], 12.34567901 nM	2.38	–
[8], 37.037 nM	0.747	–
[8], 111.1111111 nM	0.749	–
[8], 333.333 nM	1	–
[8], 1000 nM	2.77	–
[8], 3000 nM	5.39	–
[9], 4.11523 nM	0.656	–
[9], 12.34567901 nM	0.914	–
[9], 37.037 nM	0.757	–
[9], 111.1111111 nM	0.832	–
[9], 333.333 nM	0.828	–
[9], 1000 nM	1.75	–
[9], 3000 nM	4.49	–
[10], 4.11523 nM	0.635	–
[10], 12.34567901 nM	0.785	–
[10], 37.037 nM	0.418	–
[10], 111.1111111 nM	0.61	–
[10], 333.333 nM	0.687	–
[10], 1000 nM	1.26	–
[10], 3000 nM	2.4	–
[11], 4.11523 nM	0.443	–
[11], 12.34567901 nM	0.638	–
[11], 37.037 nM	0.948	–
[11], 111.1111111 nM	0.662	–
[11], 333.333 nM	1.08	–
[11], 1000 nM	1.15	–
[11], 3000 nM	1.91	–
[12], 4.11523 nM	1.13	–
[12], 12.34567901 nM	0.775	–
[12], 37.037 nM	0.829	–
[12], 111.1111111 nM	1.03	–
[12], 333.333 nM	1.12	–
[12], 1000 nM	2.9	–
[12], 3000 nM	4.8	–
[13], 4.11523 nM	0.657	–
[13], 12.34567901 nM	0.719	–
[13], 37.037 nM	0.687	–
[13], 111.1111111 nM	1.04	–
[13], 333.333 nM	0.598	–
[13], 1000 nM	1.78	–
[13], 3000 nM	4.38	–
[14], 4.11523 nM	0.839	–
[14], 12.34567901 nM	1.18	–
[14], 37.037 nM	0.627	–
[14], 111.1111111 nM	1.11	–
[14], 333.333 nM	0.969	–
[14], 1000 nM	1.71	–
[14], 3000 nM	2.49	–

OC[C@H]1NC[C@H](O)[C@@H](O)[C@@H]1O [1-Deoxynojirimycin]
Conditions	phenotypic distance	surviving fraction
[1], 4.1 nM	–	0.97
[1], 12.3 nM	–	0.945
[1], 37 nM	–	0.8513
[1], 111.1 nM	–	0.99
[1], 333.3 nM	–	1.01
[1], 1000 nM	–	1.01
[1], 3000 nM	–	0.963
[2], 4.1 nM	–	0.994
[2], 12.3 nM	–	1.02
[2], 37 nM	–	0.9516
[2], 111.1 nM	–	0.977
[2], 333.3 nM	–	1.04
[2], 1000 nM	–	0.995
[2], 3000 nM	–	0.914
[3], 4.1 nM	–	1.02
[3], 12.3 nM	–	1.01
[3], 37 nM	–	1.009
[3], 111.1 nM	–	1.05
[3], 333.3 nM	–	1.04
[3], 1000 nM	–	0.997
[3], 3000 nM	–	1.02
[4], 4.1 nM	–	0.951
[4], 12.3 nM	–	0.95
[4], 37 nM	–	0.979
[4], 111.1 nM	–	0.918
[4], 333.3 nM	–	0.988
[4], 1000 nM	–	1.03
[4], 3000 nM	–	0.988
[5], 4.1 nM	–	1.02
[5], 12.3 nM	–	0.878
[5], 37 nM	–	0.9719
[5], 111.1 nM	–	0.948
[5], 333.3 nM	–	0.937
[5], 1000 nM	–	0.997
[5], 3000 nM	–	1.02
[6], 4.1 nM	–	0.9939
[6], 12.3 nM	–	0.961
[6], 37 nM	–	0.936
[6], 111.1 nM	–	0.955
[6], 333.3 nM	–	1.03
[6], 1000 nM	–	0.978
[6], 3000 nM	–	0.9675
[7], 4.1 nM	–	0.965
[7], 12.3 nM	–	0.951
[7], 37 nM	–	0.953
[7], 111.1 nM	–	1.02
[7], 333.3 nM	–	0.889
[7], 1000 nM	–	1.04
[7], 3000 nM	–	0.9
[8], 4.1 nM	0.633	–
[8], 12.3 nM	0.606	–
[8], 37 nM	0.865	–
[8], 111.1 nM	0.487	–
[8], 333.3 nM	0.742	–
[8], 1000 nM	0.501	–
[8], 3000 nM	0.63	–
[9], 4.1 nM	0.765	–
[9], 12.3 nM	0.361	–
[9], 37 nM	0.681	–
[9], 111.1 nM	0.62	–
[9], 333.3 nM	0.677	–
[9], 1000 nM	0.652	–
[9], 3000 nM	0.534	–
[10], 4.1 nM	1.27	–
[10], 12.3 nM	1.73	–
[10], 37 nM	0.489	–
[10], 111.1 nM	0.561	–
[10], 333.3 nM	0.769	–
[10], 1000 nM	0.642	–
[10], 3000 nM	0.664	–
[11], 4.1 nM	0.644	–
[11], 12.3 nM	0.558	–
[11], 37 nM	0.579	–
[11], 111.1 nM	0.597	–
[11], 333.3 nM	0.552	–
[11], 1000 nM	0.479	–
[11], 3000 nM	0.614	–
[12], 4.1 nM	1.35	–
[12], 12.3 nM	0.664	–
[12], 37 nM	0.60231	–
[12], 111.1 nM	0.433	–
[12], 333.3 nM	0.758	–
[12], 1000 nM	0.619	–
[12], 3000 nM	0.541	–
[13], 4.1 nM	0.636	–
[13], 12.3 nM	0.609	–
[13], 37 nM	0.696	–
[13], 111.1 nM	0.505	–
[13], 333.3 nM	0.518	–
[13], 1000 nM	0.442	–
[13], 3000 nM	0.63	–
[14], 4.1 nM	0.939	–
[14], 12.3 nM	0.685	–
[14], 37 nM	0.554	–
[14], 111.1 nM	0.511	–
[14], 333.3 nM	0.634	–
[14], 1000 nM	0.682	–
[14], 3000 nM	0.673	–

Source: the supplement of paper PMC13207355
